Reference: US11053213B2, “Pharmaceutical compounds” (ALMAC DISCOVERY LIMITED, priority 2016, dated 2021)
pIC50: −log10 of the molar value.

target: USP19 (Homo sapiens (Human), UniProt O94966); assay: USP19 activity assay (fluorescence polarisation, Ubiquitin-Lys-TAMRA substrate); type: biochemical; conditions: full-length USP19 2.5 nM, 30 min pre-incubation, Ub substrate 500 nM; average of at least two duplicate experiments
Procedure: Unless otherwise stated, all other reagents were purchased from Sigma. Enzymatic reactions were conducted in black flat bottom polystyrene 384-well plates (Nunc) and 30 μL total volume. […] Inhibitors were stored as 10 mM DMSO stocks in an inert environment (low humidity, dark, low oxygen, room temperature) using the Storage Pod System and serial dilutions were prepared in buffer just prior to the assay (from 200 μM to 2 pM, 8-18 data point curve). Following incubation at RT for 30 min, the enzymatic reactions were initiated by dispensing the Ub substrate (500 nM, 10 μL). FP was measured every 15 min over a period of 90 min (within the linear range of the assay) using a Synergy 4 plate reader (BioTek) exciting at 530 nm and measuring the amount of parallel and perpendicular light at 575 nm. The FP signal was subsequently normalised to the no compound control.

USP19, sequence (O94966 whole entry): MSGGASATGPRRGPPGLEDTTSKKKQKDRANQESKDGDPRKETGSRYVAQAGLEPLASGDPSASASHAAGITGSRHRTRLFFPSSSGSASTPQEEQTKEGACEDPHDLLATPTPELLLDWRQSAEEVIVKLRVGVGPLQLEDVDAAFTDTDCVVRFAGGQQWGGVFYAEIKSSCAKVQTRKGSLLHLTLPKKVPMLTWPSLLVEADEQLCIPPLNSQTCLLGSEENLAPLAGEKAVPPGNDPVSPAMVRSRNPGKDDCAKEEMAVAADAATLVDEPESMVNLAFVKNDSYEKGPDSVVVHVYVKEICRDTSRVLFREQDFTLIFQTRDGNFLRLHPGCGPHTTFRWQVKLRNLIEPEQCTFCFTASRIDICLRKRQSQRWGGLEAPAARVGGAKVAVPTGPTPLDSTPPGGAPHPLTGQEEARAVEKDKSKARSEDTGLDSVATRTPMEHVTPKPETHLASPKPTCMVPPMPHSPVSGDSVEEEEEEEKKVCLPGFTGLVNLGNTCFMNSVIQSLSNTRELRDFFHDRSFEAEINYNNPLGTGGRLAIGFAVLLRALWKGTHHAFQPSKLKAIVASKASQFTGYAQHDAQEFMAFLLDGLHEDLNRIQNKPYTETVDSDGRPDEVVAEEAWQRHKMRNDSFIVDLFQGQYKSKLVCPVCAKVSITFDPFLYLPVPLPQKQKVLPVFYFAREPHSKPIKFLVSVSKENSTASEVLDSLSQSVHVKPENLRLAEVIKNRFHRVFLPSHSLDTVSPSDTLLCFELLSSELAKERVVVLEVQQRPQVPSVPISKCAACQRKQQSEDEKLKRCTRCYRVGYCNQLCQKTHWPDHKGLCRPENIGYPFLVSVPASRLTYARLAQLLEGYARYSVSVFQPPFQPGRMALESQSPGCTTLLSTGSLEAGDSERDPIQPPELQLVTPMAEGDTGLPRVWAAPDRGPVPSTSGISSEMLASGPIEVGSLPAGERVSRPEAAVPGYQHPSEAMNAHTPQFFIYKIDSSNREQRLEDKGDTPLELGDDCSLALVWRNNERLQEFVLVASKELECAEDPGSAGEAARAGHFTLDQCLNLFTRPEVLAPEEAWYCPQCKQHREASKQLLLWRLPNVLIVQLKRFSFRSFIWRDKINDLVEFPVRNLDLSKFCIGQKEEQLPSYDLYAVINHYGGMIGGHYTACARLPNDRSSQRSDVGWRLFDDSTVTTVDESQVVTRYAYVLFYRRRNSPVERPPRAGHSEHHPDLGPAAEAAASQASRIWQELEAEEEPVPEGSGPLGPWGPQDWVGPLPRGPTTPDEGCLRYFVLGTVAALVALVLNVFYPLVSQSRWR

C[C@H](CC(=O)N1CCC(O)(Cn2cc(C(=O)N3CCCCC3)c(-c3ccccc3)cc2=O)CC1)c1ccccc1 [Example 88, (R)-1-((4-Hydroxy-1-(3-phenylbutanoyl)piperidin-4-yl)methyl)-4-phenyl-5-(piperidine-1-carbonyl)pyridin-2(1H)-one] and C[C@H](CC(=O)N1CCC(O)(Cn2cc(-c3cccc(C(N)=O)c3)c(-c3ccccc3)cc2=O)CC1)c1ccccc1 [Example 7, (R)-3-(1-((4-Hydroxy-1-(3-phenylbutanoyl)piperidin-4-yl)methyl)6-oxo-4-phenyl-1,6-dihydropyridin-3-yl)benzamide] fall in the same range of pIC50: 5.30 to 6.30 for the first, 5.30 to 6.30 for the second.

First: C[C@H](CC1CCC1)C(=O)N1CC[C@@](O)(Cn2cc(C(=O)N3CCNCC3)c(C3CC3)cc2=O)C2(CCCC2)C1 [Example 231, 1-(((S)-7-((R)-3-Cyclobutyl-2-methylpropanoyl)-10-hydroxy-7-azaspiro[4.5]decan-10-yl)methyl)-4-cyclopropyl-5-(piperazine-1-carbonyl)pyridin-2(1H)-one]
Second: C[C@H](CC1CCC1)C(=O)N1CC[C@@](O)(Cn2cc(C(=O)N3CCNCC3)c(-c3ccccc3F)cc2=O)C2(CCCC2)C1 [Example 224, 1-(((S)-7-((R)-3-Cyclobutyl-2-methylpropanoyl)-10-hydroxy-7-azaspiro[4.5]decan-10-yl)methyl)-4-(2-fluorophenyl)-5-(piperazine-1-carbonyl)pyridin-2(1H)-one]
The pIC50 of the first is lower: 5.30 to 6.30 for the first, over 6.30 for the second. The second is the more potent here.

Compared with CC(CC(=O)N1CCC(O)(Cn2cnc(-c3ccccc3F)cc2=O)C(C)(C)C1)C1CCCCC1 (centres unmarked) [Example 76, 3-((1-(3-Cyclohexylbutanoyl)-4-hydroxy-3,3-dimethylpiperidin-4-yl)methyl)-6-(2-fluorophenyl)pyrimidin-4(3H)-one], C[C@H](CC1CCCCC1)C(=O)N1CCC(O)(Cn2cnc(-c3ccccc3F)cc2=O)CC1 [Example 39, (R)-3-((1-(3-Cyclohexyl-2-methylpropanoyl)-4-hydroxypiperidin-4-yl)methyl)-6-(2-fluorophenyl)pyrimidin-4(3H)-one] is lower in pIC50: 5.30 to 6.30 for the first, 4.30 to 5.30 for the second.

C[C@H](CC(=O)N1CCC(O)(Cn2cnc(-c3ccsc3)cc2=O)CC1)c1ccccc1 [Example 22, (R)-3-((4-Hydroxy-1-(3-phenylbutanoyl)piperidin-4-yl)methyl)-6-(thiophen-3-yl)pyrimidin-4(3H)-one] and C[C@H](CC(=O)N1CCC(O)(Cn2cnc(-c3ccccc3F)cc2=O)CC1)c1ccccc1 [Example 32, (R)-6-(2-Fluorophenyl)-3-((4-hydroxy-1-(3-phenylbutanoyl)piperidin-4-yl)methyl)pyrimidin-4(3H)-one] fall in the same range of pIC50: 4.30 to 5.30 for the first, 4.30 to 5.30 for the second.

C[C@H](CC1CCCCC1)C(=O)N1CC[C@@](O)(Cn2cc(C(=O)N3CCN(C)CC3)c(-c3ccccc3)cc2=O)C2(CCCC2)C1 [Example 240, 1-(((S)-7-((R)-3-Cyclohexyl-2-methylpropanoyl)-10-hydroxy-7-azaspiro[4.5]decan-10-yl)methyl)-5-(4-methylpiperazine-1-carbonyl)-4-phenylpyridin-2(1H)-one] and C[C@H](CC1CCCCC1)C(=O)N1CC[C@@](O)(Cn2cc(C(=O)N(C)C)c(-c3ccccc3)cc2=O)C2(CCCC2)C1 [Example 211, 1-(((S)-7-((R)-3-Cyclohexyl-2-methylpropanoyl)-10-hydroxy-7-azaspiro[4.5]decan-10-yl)methyl)-N,N-dimethyl-6-oxo-4-phenyl-1,6-dihydropyridine-3-carboxamide] cannot be ordered by pIC50: over 6.30 for the first, over 6.30 for the second.

CN(C)C(=O)c1cn(CC2(O)CCN(C(=O)c3n[nH]c4ccccc34)CC23CCCC3)c(=O)cc1-c1ccccc1 (centres unmarked) [Example 188, 1-((10-Hydroxy-7-(1H-indazole-3-carbonyl)-7-azaspiro[4.5]decan-10-yl)methyl)-N,N-dimethyl-6-oxo-4-phenyl-1,6-dihydropyridine-3-carboxamide] and CN(C)C(=O)c1cn(CC2(O)CCN(C(=O)C3CC3)CC23CCCC3)c(=O)cc1-c1ccccc1 (centres unmarked) [Example 175, 1-((7-(Cyclopropanecarbonyl)-10-hydroxy-7-azaspiro[4.5]decan-10-yl)methyl)-N,N-dimethyl-6-oxo-4-phenyl-1,6-dihydropyridine-3-carboxamide] fall in the same range of pIC50: 3.60 to 4.30 for the first, 3.60 to 4.30 for the second.

CC(C)N(C)C(=O)c1cn(CC2(O)CCN(C(=O)C3(C)CCCC3)CC2)c(=O)cc1-c1ccccc1F [Example 23, 4-(2-Fluorophenyl)-1-((4-hydroxy-1-(1-methylcyclopentane-1-carbonyl)piperidin-4-yl)methyl)-N-isopropyl-N-methyl-6-oxo-1,6-dihydropyridine-3-carboxamide] and CN(C)C(=O)c1cn(CC2(O)CCN(C(=O)C3(C)CCCCC3)CC23CCCC3)c(=O)cc1-c1ccccc1 (centres unmarked) [Example 176, 1-((10-Hydroxy-7-(1-methylcyclohexane-1-carbonyl)-7-azaspiro[4.5]decan-10-yl)methyl)-N,N-dimethyl-6-oxo-4-phenyl-1,6-dihydropyridine-3-carboxamide] fall in the same range of pIC50: 4.30 to 5.30 for the first, 4.30 to 5.30 for the second.

First: O=C(CCc1ccc(F)cc1)N1CCC(O)(Cn2cnc(-c3ccccc3F)cc2=O)CC1 [Example 82, 6-(2-Fluorophenyl)-3-((1-(3-(4-fluorophenyl)propanoyl)-4-hydroxypiperidin-4-yl)methyl)pyrimidin-4(3H)-one]
Second: C[C@H](CC1CCCCC1)C(=O)N1CCC(O)(Cn2cnc(-c3cccc(CO)c3)cc2=O)C(C)(C)C1 (stereo partly drawn) [Example 138, 3-((1-((R)-3-Cyclohexyl-2-methylpropanoyl)-4-hydroxy-3,3-dimethylpiperidin-4-yl)methyl)-6-(3-(hydroxymethyl)phenyl)pyrimidin-4(3H)-one]
The pIC50 of the first is lower: 3.60 to 4.30 for the first, over 6.30 for the second.

C[C@H](CC1CCCCC1)C(=O)N1CCC(O)(Cn2cc(C(=O)N(C)C)c(-c3ccccc3CN)cc2=O)C2(CCCC2)C1 (stereo partly drawn) [Example 161, 4-(2-(Aminomethyl)phenyl)-1-((7-((R)-3-cyclohexyl-2-methylpropanoyl)-10-hydroxy-7-azaspiro[4.5]decan-10-yl)methyl)-N,N-dimethyl-6-oxo-1,6-dihydropyridine-3-carboxamide] and CC(OC1CCCCC1)C(=O)N1CCC(O)(Cn2cc(C(=O)N(C)C)c(-c3ccccc3)cc2=O)C2(CCCC2)C1 (centres unmarked) [Example 199, 1-((7-(2-(Cyclohexyloxy)propanoyl)-10-hydroxy-7-azaspiro[4.5]decan-10-yl)methyl)-N,N-dimethyl-6-oxo-4-phenyl-1,6-dihydropyridine-3-carboxamide] fall in the same range of pIC50: 4.30 to 5.30 for the first, 4.30 to 5.30 for the second.

Compared with C[C@H](CC1CCC1)C(=O)N1CCC(O)(Cn2cc(C(=O)N(C)C)c(-c3ccccc3)cc2=O)C(C)(C)C1 (stereo partly drawn) [Example 128, 1-((1-((R)-3-Cyclobutyl-2-methylpropanoyl)-4-hydroxy-3,3-dimethylpiperidin-4-yl)methyl)-N,N-dimethyl-6-oxo-4-phenyl-1,6-dihydropyridine-3-carboxamide], C[C@H](CC1CCCCC1)C(=O)N1CC[C@@](O)(Cn2cc(C(=O)N(C)C)c(-c3ccccc3)cc2=O)C(C)(C)C1 [Example 121, 1-(((S)-1-((R)-3-Cyclohexyl-2-methylpropanoyl)-4-hydroxy-3,3-dimethylpiperidin-4-yl)methyl)-N,N-dimethyl-6-oxo-4-phenyl-1,6-dihydropyridine-3-carboxamide] is higher in pIC50: 5.30 to 6.30 for the first, over 6.30 for the second.
